This note sets out measurements from the supplement of paper PMC10307832.

Assay in all cases: relative viability (nuclei count vs DMSO), 5 days (fraction); higher = more cells survive
Compound in experiment [1]: C1CC(C1)(C(=O)O)C(=O)O.[NH2-].[NH2-].[Pt+2] [Carboplatin] + C[C@]1(O)C[C@@H](c2nc(-c3ccc4ccc(-c5ccccc5)nc4c3)c3c(N)nccn32)C1 [Linsitinib] (partner 1 µM)
The procedure, abridged: (§1)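 Five library-drug doses in √10 steps were combined with a fixed anchor-drug dose, or a single drug was given alone, by pin tool to lung cancer cell lines in 1536-well plates the day after seeding. Nuclei were stained and counted after 5 days. Relative viability is the nuclei count in treated wells over that in vehicle wells, taken as the median of duplicate plates.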

Compound in experiment [2]: C1CC(C1)(C(=O)O)C(=O)O.[NH2-].[NH2-].[Pt+2] [Carboplatin] + C[C@@H](Oc1cc(-c2cnn(C3CCNCC3)c2)cnc1N)c1c(Cl)ccc(F)c1Cl [Crizotinib] (partner 1 µM)
The method, boiled down: as §1

Compound in experiment [3]: C1CC(C1)(C(=O)O)C(=O)O.[NH2-].[NH2-].[Pt+2] [Carboplatin] + O=C(c1cc(Cc2n[nH]c(=O)c3ccccc23)ccc1F)N1CCN(C(=O)C2CC2)CC1 [Olaparib] (partner 8 µM)
The procedure, abridged: as §1

Compound in experiment [4]: C1CC(C1)(C(=O)O)C(=O)O.[NH2-].[NH2-].[Pt+2] [Carboplatin] + Cc1nc(NC(=O)N2CCC[C@H]2C(N)=O)sc1-c1ccnc(C(C)(C)C(F)(F)F)c1 [Alpelisib] (partner 2 µM)
The procedure, abridged: as §1

For NCI-H2228, the relative viability in experiment [1] (first compound 0.08 µM) stood at 0.601; in experiment [1] (first compound 0.253 µM), 1.08; in experiment [1] (first compound 0.8 µM), 0.719; in experiment [1] (first compound 2.53 µM), 0.653; in experiment [1] (first compound 8 µM), 0.641; in experiment [2] (first compound 0.08 µM), 0.469. Further, the relative viability was 0.517 in experiment [2] (first compound 0.253 µM); 0.41 in experiment [2] (first compound 0.8 µM); 0.593 in experiment [2] (first compound 2.53 µM); 0.428 in experiment [2] (first compound 8 µM); 0.927 in experiment [3] (first compound 0.08 µM); 0.514 in experiment [3] (first compound 0.253 µM). The relative viability in experiment [3] (first compound 0.8 µM) stood at 0.553; in experiment [3] (first compound 2.53 µM), 0.645; in experiment [3] (first compound 8 µM), 0.436; in experiment [4] (first compound 0.08 µM) it was 0.813; in experiment [4] (first compound 0.253 µM) it was 0.687; in experiment [4] (first compound 0.8 µM), 0.561. For the same cell line, the relative viability was 0.593 in experiment [4] (first compound 2.53 µM) and 0.566 in experiment [4] (first compound 8 µM).

With NCI-H2347, the relative viability in experiment [1] (first compound 0.08 µM) came to 1.05; in experiment [1] (first compound 0.253 µM) it was 1.04; in experiment [1] (first compound 0.8 µM), 0.967; in experiment [1] (first compound 2.53 µM), 0.893; in experiment [1] (first compound 8 µM) it was 0.841; in experiment [2] (first compound 0.08 µM) it was 0.903. The relative viability in experiment [2] (first compound 0.253 µM) came out at 0.697; in experiment [2] (first compound 0.8 µM), 0.635; in experiment [2] (first compound 2.53 µM), 0.571; in experiment [2] (first compound 8 µM) it was 0.632; in experiment [3] (first compound 0.08 µM), 0.55; in experiment [3] (first compound 0.253 µM) it was 0.568. Moreover, the relative viability in experiment [3] (first compound 0.8 µM) came out at 0.57; in experiment [3] (first compound 2.53 µM), 0.546; in experiment [3] (first compound 8 µM), 0.498; in experiment [4] (first compound 0.08 µM), 1.02; in experiment [4] (first compound 0.253 µM), 1.12; in experiment [4] (first compound 0.8 µM) it was 1. The relative viability in experiment [4] (first compound 2.53 µM) was 0.97; in experiment [4] (first compound 8 µM), 0.838.

Consider NCI-H2405, for which the relative viability in experiment [1] (first compound 0.08 µM) was 0.957; in experiment [1] (first compound 0.253 µM), 0.871; in experiment [1] (first compound 0.8 µM), 0.882; in experiment [1] (first compound 2.53 µM), 0.833; in experiment [1] (first compound 8 µM), 0.842; in experiment [2] (first compound 0.08 µM) it was 0.901. The relative viability in experiment [2] (first compound 0.253 µM) turned out to be 0.906; in experiment [2] (first compound 0.8 µM) it was 0.847; in experiment [2] (first compound 2.53 µM), 0.813; in experiment [2] (first compound 8 µM), 0.754; in experiment [3] (first compound 0.08 µM), 0.965; in experiment [3] (first compound 0.253 µM) it was 0.926. Moreover, the relative viability worked out at 0.841 in experiment [3] (first compound 0.8 µM); 0.821 in experiment [3] (first compound 2.53 µM); 0.66 in experiment [3] (first compound 8 µM); 0.925 in experiment [4] (first compound 0.08 µM); 0.734 in experiment [4] (first compound 0.253 µM); 0.671 in experiment [4] (first compound 0.8 µM). In addition, the relative viability in experiment [4] (first compound 2.53 µM) was determined as 0.763; in experiment [4] (first compound 8 µM), 0.639.

For NCI-H3122, the relative viability is 0.947 in experiment [1] (first compound 0.08 µM); 1.01 in experiment [1] (first compound 0.253 µM); 0.991 in experiment [1] (first compound 0.8 µM); 1.08 in experiment [1] (first compound 2.53 µM); 0.973 in experiment [1] (first compound 8 µM); 0.3 in experiment [2] (first compound 0.08 µM). In addition, the relative viability in experiment [2] (first compound 0.253 µM) was found to be 0.299; in experiment [2] (first compound 0.8 µM), 0.275; in experiment [2] (first compound 2.53 µM), 0.323; in experiment [2] (first compound 8 µM) it was 0.28; in experiment [3] (first compound 0.08 µM) it was 0.644; in experiment [3] (first compound 0.253 µM), 0.584. Further, the relative viability in experiment [3] (first compound 0.8 µM) is 0.562; in experiment [3] (first compound 2.53 µM), 0.559; in experiment [3] (first compound 8 µM) it was 0.622; in experiment [4] (first compound 0.08 µM) it was 0.773; in experiment [4] (first compound 0.253 µM) it was 0.862; in experiment [4] (first compound 0.8 µM) it was 0.869. Besides, the results for the relative viability in experiment [4] (first compound 2.53 µM) and in experiment [4] (first compound 8 µM) were 0.762 and 0.764, respectively.

Consider PC-3 [JPC-3], for which the relative viability in experiment [1] (first compound 0.08 µM) was found to be 0.953; in experiment [1] (first compound 0.253 µM), 0.942; in experiment [1] (first compound 0.8 µM), 0.888; in experiment [1] (first compound 2.53 µM) it was 0.919; in experiment [1] (first compound 8 µM), 0.931; in experiment [2] (first compound 0.08 µM), 1.03. Also, the relative viability in experiment [2] (first compound 0.253 µM) was determined as 1.04; in experiment [2] (first compound 0.8 µM), 0.962; in experiment [2] (first compound 2.53 µM), 0.966; in experiment [2] (first compound 8 µM), 0.902; in experiment [3] (first compound 0.08 µM) it was 1.23; in experiment [3] (first compound 0.253 µM), 1.14. For the same cell line, the relative viability in experiment [3] (first compound 0.8 µM) is 1.12; in experiment [3] (first compound 2.53 µM), 1.04; in experiment [3] (first compound 8 µM) it was 0.835; in experiment [4] (first compound 0.08 µM), 1.06; in experiment [4] (first compound 0.253 µM) it was 1.11; in experiment [4] (first compound 0.8 µM) it was 0.992. Besides, the relative viability in experiment [4] (first compound 2.53 µM) was determined as 1; in experiment [4] (first compound 8 µM) it was 0.834.
